Experimental data reported in US11931482B2 (priority 2019, dated 2024).

Columns and labels:
MRSA USA300 = assay: Kirby-Bauer assay, inner and outer surfaces of bisected coated catheters; assay type: cell-based; details: Staphylococcus aureus, read-out: average zone of inhibition diameter
Description: To evaluate the auranofin release, the inventors used a Kirby Bauer assay to visualize the bacterial inhibition and determine if the catheter released the auranofin into the surrounding media. Coated catheters were split through the circumference of the material to expose both the inner and outer surfaces. […] The inventors then placed these catheter pieces were then placed on a bacteria-seeded agar plate with the respective surfaces face down.
Antibacterial and antibiofilm activity of PU+auranofin catheter coatings was examined against MRSA USA300, a community-associated MRSA strain. Kirby-Bauer and broth bacteria survival assays on the coated catheters and their release solutions were conducted, respectively. For the Kirby-Bauer assay, MRSA USA300 in the exponential growth phase at a concentration of 10^8 CFU/mL was spread on tryptic soy agar plates. PU+auranofin-coated and PU+auranofin-uncoated catheters were cut in half lengthwise using a scalpel. Both the inner and outer surfaces of the catheters were placed in direct contact with the bacteria seeded agar and incubated for twenty-four hours at 37° C. These plates were then photographed using a Canon PowerShot S110 digital camera (Tokyo, Japan).

[1] = system: Staphylococcus aureus strain MRSA USA300; assay: Microdilution assay, minimum inhibitory concentration of non-coating incorporated auranofin; assay type: cell-based; details: TSBG, ~18 hours
Description: Auranofin release from PU+auranofin-coated catheters was monitored by incubating each coated catheter in 1.98 mL of tryptic soy broth supplemented with 0.25% glucose (TSBG) at 37° C. with shaking at 110 rpm. […] Heilmann et al., Infect. Immun., 64, 277-82 (1996); Lim et al., J. Bacteriol., 186, 722-729 (2004). Every twenty-four hours, the release solutions were collected and completely replaced with fresh medium. A microdilution assay, as described by Shukla & Shukla, J. Mater. Chem. B, 6, 6444-6458 (2018), was used to determine the amount of auranofin contained in the media release samples by comparing the antibacterial activity to that of known concentrations of non-coating incorporated auranofin. […] Staphylococcus aureus strain MRSA USA300 (10 μL) at a final concentration of 10^5 CFU/mL in the exponential growth phase (as determined by optical density) was added to these wells. […] Subsequently, the optical density (OD) of the samples was read at 600-nm using a Cytation3 microplate reader (BioTek, Winooski, VT, USA). The normalized bacteria density was calculated using Equation (1).
The minimum inhibitory concentration of the auranofin control against USA300 was determined as the concentration range of auranofin needed to observe a statistically significant transition of normalized bacteria density from […]. […]

[2] = system: Gram-positive pathogenic bacteria, including Mycobacterium tuberculosis, Bacillus subtilis, Enterococcus faecalis, Enterococcus faecium, Staphylococcus aureus; details: Hassanein et al. 2017; cited from earlier work
[3] = oral antirheumatic therapy; Egsmose et al. 1995; cited from earlier work
[4] = system: preformed Staphylococcus aureus biofilms; details: within two hours of exposure; Torres et al. 2016; cited from earlier work

| Structure (SMILES) | zone of inhibition at 30 µg/disc (MRSA USA300) [mm] | minimum inhibitory concentration against USA300 [1] [µg/mL] | minimum inhibitory concentration (MIC) against these bacteria [2] [µg/mL] | cumulative toxicity during long-term treatments [3] | effect on preformed Staphylococcus aureus biofilms [4] |
| --- | --- | --- | --- | --- | --- |
| CN[C@H](CC(C)C)C(=O)N[C@H]1C(=O)N[C@@H](CC(N)=O)C(=O)N[C@H]2C(=O)N[C@H]3C(=O)N[C@H](C(=O)N[C@H](C(=O)O)c4cc(O)cc(O)c4-c4cc3ccc4O)[C@H](O)c3ccc(c(Cl)c3)Oc3cc2cc(c3O[C@@H]2O[C@H](CO)[C@@H](O)[C@H](O)[C@H]2O[C@H]2C[C@](C)(N)[C@H](O)[C@H](C)O2)Oc2ccc(cc2Cl)[C@H]1O [vancomycin] | 14.8 ± 2 |  |  |  |  |
| CC(=O)OCC1OC([S-])C(OC(C)=O)C(OC(C)=O)C1OC(C)=O.CCP(CC)CC.[Au+] (centres unmarked) [auranofin, Gold(+1) cation; 3,4,5-triacetyloxy-6-(acetyloxymethyl) oxane-2-thiolate; triethylphosphanium] |  | 0.063 | ≥ 0.25 | no cumulative toxicity | inhibit preformed Staphylococcus aureus biofilms |
